{"source": "patent US9044491B2", "about": "“Method for improving blood flow using stilbenoid derivatives” (The Board of Trustees of the University of Arkansas, priority 2010, dated 2015)", "key": {"[1]": {"tested_on": "CLP or Control (Sham) mice", "assay": "Mean arterial pressure and heart rate by biotelemetry", "format": "in vivo, mouse", "procedure": "Mean arterial pressure (MAP) and heart rate (HR) were monitored continuously in conscious mice using biotelemetry. Transmitters (Data Sciences International, Minneapolis Minn.) were implanted into the carotid artery under isoflurane anesthesia and the animals were allowed to recover for 48 h. Mice were re-anesthetized with isoflurane and received CLP or Control (Sham) surgery. Cardiovascular parameters were recorded for 10 s every 5 min."}, "[2]": {"tested_on": "CLP mice", "assay": "Serum creatinine and blood urea nitrogen after CLP", "format": "in vivo, mouse", "procedure": "Acute Kidney Injury (AKI) is accompanied by elevated blood urea nitrogen levels, elevated creatinine levels, and low blood pressure. Serum creatinine and blood urea nitrogen (BUN) were measured using the QuantiChrom® Creatinine Assay kit and Urea Assay Kit (BioAssay Systems, Hayward Calif.)."}, "[3]": {"biological_target": "T1, human UGT1A1 (Homo sapiens, UniProt P22309)", "T1 sequence (P22309 26-533)": "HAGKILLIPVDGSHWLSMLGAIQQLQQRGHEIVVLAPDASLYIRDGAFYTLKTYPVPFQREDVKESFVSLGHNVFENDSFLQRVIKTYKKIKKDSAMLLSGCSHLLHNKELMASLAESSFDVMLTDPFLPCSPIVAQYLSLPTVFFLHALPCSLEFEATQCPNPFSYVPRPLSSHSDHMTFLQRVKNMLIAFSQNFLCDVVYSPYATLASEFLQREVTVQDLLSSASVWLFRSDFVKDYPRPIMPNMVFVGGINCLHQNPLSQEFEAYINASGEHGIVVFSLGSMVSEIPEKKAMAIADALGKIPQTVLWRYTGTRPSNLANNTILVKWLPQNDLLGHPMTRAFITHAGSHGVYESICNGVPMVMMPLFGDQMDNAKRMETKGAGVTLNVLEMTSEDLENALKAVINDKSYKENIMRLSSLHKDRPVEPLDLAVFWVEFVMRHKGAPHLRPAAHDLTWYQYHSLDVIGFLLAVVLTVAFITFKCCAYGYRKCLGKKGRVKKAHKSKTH", "settings": "250 μM", "method": "Eight human recombinant UGT1A isoforms (UGT1A1, 1A3, 1A4, 1A6, 1A7, 1A8, 1A9, and 1A10; 5 μg) expressed as His-tag proteins in baculovirus-infected Sf9 insect cells and human liver microsomes (from one donor; HL2; 50 μg) and human intestinal microsomes (from two donors; HI36 and HI41; 50 μg) were evaluated for their ability to glucuronidate these four compounds. The concentrations of the substrate and co-substrate (i.e., UDP-GlcUA) were 250 μM and 4 mM, respectively. Glucuronidation products were analyzed by HPLC and LCMS/MS.\nThe kinetic constants of the glucuronidation reactions using recombinant human UGT1A1 and UGT1A10 were determined by measuring the enzyme activity in the presence of increasing concentrations of substrate (see FIG. 2)."}, "[4]": {"settings": "CLP mice, 3, 10, or 30 mg/kg i.p. at 5.5 hours"}, "[5]": {"settings": "10 mg/kg administered 6 hours after CLP surgery, single dose"}}}
{"smiles": "Oc1ccc(/C=C/c2cc(O)cc(O)c2)cc1", "note": "[tRes, trans-resveratrol]", "values": [{"measurement": "heart rate (HR)", "setting": "[1]; [4]", "result": "no effect"}, {"measurement": "mean arterial pressure (MAP)", "setting": "[1]; [4]", "result": "no effect"}, {"measurement": "heart rate (HR)", "setting": "[1]; Control (Sham) mice", "result": "slightly increase"}, {"measurement": "BUN levels", "setting": "[2]; [5]", "result": "not"}, {"measurement": "serum creatinine levels", "setting": "[2]; [5]", "result": "significantly reduced"}, {"measurement": "BUN levels", "setting": "[2]; additional dose given at 12 h", "result": "significant reduction"}, {"measurement": "serum creatinine levels", "setting": "[2]; additional dose given at 12 h", "result": "significant reduction"}, {"measurement": "glucuronide formation by UGT1A1", "setting": "[3]", "result": "glucuronidated to 3-O— and 4′-O-Glucs"}]}
